According to patent US20140212441A1, “PHARMACEUTICAL COMPOSITION FOR INFLAMMATORY DISEASES, ALLERGIC DISEASES AND AUTOIMMUNE DISEASES” (R-TECH UENO, LTD., priority 2011, published 2014):

Assays:
[1] = tested on: LPS-stimulated mouse B cell proliferation; experiment: B cell proliferation suppression test; format: cell-based; settings: LPS-stimulated Balb/c spleen B lymphocytic cells, 3H thymidine uptake
Procedure: B lymphocytic cells (2×10^6/mL) isolated from the spleen of Balb/c mice (weighing 17±1 g) were cultured in a pH 7.4 AIM-V medium containing a given concentration of compound A and […] of a lipopolysaccharide (LPS) at 37° C. for 24 hours, and, after added with 120 nM ^3H thymidine, further cultured for 16 hours. The cells were collected by filter filtration, and the uptake of thymidine into the cells was measured using a liquid scintillation counter to evaluate the cell proliferation-suppressing effect and calculate IC50.

[2] = tested on: Con A-stimulated mouse T cell proliferation; experiment: T cell proliferation suppression test; format: cell-based; settings: Con A-stimulated Balb/c thymus T lymphocytic cells, 3H thymidine uptake
Procedure: T lymphocytic cells (5×10^6/mL) isolated from the thymus of Balb/c mice (weighing 17±1 g) were cultured in a pH 7.4 AIM-V medium containing a given concentration of compound A and […] of concanavalin A (Con A) at 37° C. for 24 hours, and, after added with 120 nM ^3H thymidine, further cultured for 16 hours. The cells were collected by filter filtration, and the uptake of thymidine into the cells was measured using a liquid scintillation counter to evaluate the cell proliferation-suppressing effect and calculate IC50.

[3] = tested on: transcription factor NFAT-1; experiment: NF-AT gene transcription suppression test (lac Z reporter, Jurkat cells); format: cell-based; settings: Homo sapiens, lac Z under NFAT-1 site, A23187 + PMA, β-galactosidase activity
Procedure: (§1) Human T lymphocyte Jurkat cells transformed with a β-galactosidase gene (lac Z) having a DNA binding site for the transcription factor NFAT-1 in its transcriptional control region (2.3×10^6/mL) were cultured together with a given concentration of compound A in a pH 7.4 RPMI-1640 medium at 37° C. for 20 minutes, and, after added with […] A23187 (calcium ionophore) and 50 ng/mL PMA (Phorbol 12-myristate 13-acetate), further cultured for 4 hours. The activity of β-galactosidase was measured by conversion from FDG (fluorescein-di-beta-D-galactopyranoside) to fluorescein. Fluorescent emission was measured using a SpectroFluor Plus plate reader and IC50 was calculated.

[4] = tested on: transcription factor NF-κB; experiment: NF-κB gene transcription suppression test (lac Z reporter, Jurkat cells); format: cell-based; settings: Homo sapiens, lac Z under NF-κB site, A23187 + PMA, β-galactosidase activity
Procedure: as §1, with “NF-κB” for “NFAT-1”

[5] = tested on: PiCl-induced atopic dermatitis model mice (NC/NgaTndCrlj, male); experiment: Atopic dermatitis mouse model: dermatitis score; format: in vivo; parameters: key to Dermatitis score (average ± standard error): sum of grades of five findings, each 0 (subclinical) to 3 (severe)
Procedure: (§2) An atopic dermatitis mouse model (NC/NgaTndCrlj, male) induced by picryl chloride (PiCl) was used to evaluate effects against dermal inflammation and hair conditions on the skin suffering from dermal inflammation.
(§3) PiCl-induced atopic dermatitis model mice were prepared by applying a PiCl solution to the sheared abdomen and footpad for sensitization and applying the PiCl solution to the sheared back and the right and left ears (both the inside and outside thereof) once a week for 5 weeks starting from the 5th day after sensitization for repeated induction. In each group, administration was performed once a day for 28 days starting from the 18th day after PiCl sensitization. Compound A and 0.1% tacrolimus ointment were openly applied to a ca. 3 cm×ca. 5 cm region of the neck and back of the model animals. The animals of the 5th group (the group of combined administration of prednisolone and 0.6 w/v % compound A) were orally administered 1 mg/kg of prednisolone and then transdermally administered 0.6 w/v % compound A. The animals of the 6th group (the group of combined administration of 0.1% tacrolimus ointment and 0.6 w/v % compound A) were administered 0.1% tacrolimus ointment at or beyond 3.5 hours after administration of 0.6 w/v % compound A.
(§4) Each evaluation used a dermatitis score and a hair restoration score. The scores were obtained by grading dermatitis and hair growth/hair restoration conditions at Day 1, 8, 15, 22, and 29 (the next day after final administration) of administration, according to the following criteria.
<Dermatitis Findings> The dermatitis score of each individual was expressed as the sum of grades (0: subclinical to 3: severe) of the following dermatitis findings (1) to (5).
(2) Flare/bleeding: Flare and bleeding symptoms in the induction site were observed.
(3) Edema: The edema of the auricle as the induction site was qualitatively observed.
An effect against atopic dermal inflammation was evaluated using the dermatitis score at Day 8 of administration.

[6] = tested on: PiCl-induced atopic dermatitis model mice (NC/NgaTndCrlj, male); experiment: Atopic dermatitis mouse model: hair restoration score; format: in vivo; parameters: key to Hair restoration score (average ± standard error): 0 = no hair growth, 3 = hair restoration in 75-100% of site
Procedure: as §2, §3, §4
<Hair Growth/Hair Restoration Condition> A region received transdermal administration (a ca. 3 cm×ca. 5 cm region of the neck and back) of each individual was observed.
0: No hair growth or hair restoration is noted in the observation site.
1: Hair growth and hair restoration are noted in 0<25% of the observation site.
2: Hair growth and hair restoration are noted in 25≦75% of the observation site.
3: Hair growth and hair restoration are noted in 75≦100% of the observation site.
Hair condition in the skin suffering from dermal inflammation was evaluated using hair restoration scores at Day 15, 22 and 29 of administration.

[7] = 0.08 w/v % Compound A transdermal once a day, Day 15
[8] = 0.08 w/v % Compound A transdermal once a day, Day 22
[9] = 0.08 w/v % Compound A transdermal once a day, Day 29
[10] = 0.3 w/v % Compound A transdermal once a day, Day 1
[11] = 0.3 w/v % Compound A transdermal once a day, Day 15
[12] = 0.3 w/v % Compound A transdermal once a day, Day 22
[13] = 0.3 w/v % Compound A transdermal once a day, Day 29
[14] = 0.6 w/v % Compound A transdermal once a day, Day 1
[15] = 0.6 w/v % Compound A transdermal once a day, Day 15
[16] = 0.6 w/v % Compound A transdermal once a day, Day 22

CCCCCCCC1(CC[C@@H]2[C@@H](C/C=C\CCCC(=O)OC(C)C)[C@@H](O)C[C@H]2O)OCCO1 [Compound A, isopropyl (Z)-7-[(1R,2R,3R,5S)-2-(3,3-ethylenedioxydecyl)-3,5-dihydroxycyclopentyl]hept-5-enoate]
IC50 [1]: 9.23 µM
IC50 [2]: 6.3 µM
IC50 [3]: 1.32 µM
IC50 [4]: 1.33 µM
Dermatitis score (average ± standard error) ([5]; 0.08 w/v % Compound A transdermal once a day, Day 1 of administration): 3.8 ± 0.4
Dermatitis score (average ± standard error) ([5]; 0.08 w/v % Compound A transdermal once a day, Day 8): 3.7 ± 0.6
Dermatitis score (average ± standard error) [5, 7]: 6.2 ± 0.7
Dermatitis score (average ± standard error) [5, 8]: 8.0 ± 0.5
Dermatitis score (average ± standard error) [5, 9]: 9.0 ± 0.7
Dermatitis score (average ± standard error) [5, 10]: 3.3 ± 0.5
Dermatitis score (average ± standard error) ([5]; 0.3 w/v % Compound A transdermal once a day, Day 8): 3.5 ± 0.4
Dermatitis score (average ± standard error) [5, 11]: 5.5 ± 0.5
Dermatitis score (average ± standard error) [5, 12]: 7.5 ± 0.7
Dermatitis score (average ± standard error) [5, 13]: 8.1 ± 0.5
Dermatitis score (average ± standard error) [5, 14]: 3.6 ± 0.3
Dermatitis score (average ± standard error) [5, 15]: 6.0 ± 0.7
Dermatitis score (average ± standard error) [5, 16]: 8.3 ± 0.4
Dermatitis score (average ± standard error) ([5]; 0.6 w/v % Compound A transdermal once a day, Day 29): 9.3 ± 0.6
progression of early dermatitis ([5]; compared to the group administered with the base for compound A, Day 8 dermatitis score): tendency to be suppressed
Hair restoration score (average ± standard error) ([6]; 0.08 w/v % Compound A transdermal once a day, Day 1): 0.0 ± 0.0
Hair restoration score (average ± standard error) [6, 7]: 2.2 ± 0.1
Hair restoration score (average ± standard error) [6, 8]: 1.4 ± 0.2
Hair restoration score (average ± standard error) [6, 9]: 1.5 ± 0.2
Hair restoration score (average ± standard error) [6, 10]: 0.0 ± 0.0
Hair restoration score (average ± standard error) [6, 11]: 2.1 ± 0.2
Hair restoration score (average ± standard error) [6, 12]: 1.6 ± 0.2
Hair restoration score (average ± standard error) [6, 13]: 1.9 ± 0.2
Hair restoration score (average ± standard error) [6, 14]: 0.0 ± 0.0
Hair restoration score (average ± standard error) [6, 15]: 1.8 ± 0.2
Hair restoration score (average ± standard error) [6, 16]: 1.5 ± 0.2
Hair restoration score (average ± standard error) ([6]; 0.6 w/v % Compound A transdermal once a day, Day 29, P < 0.05 vs Day 22): 2.0 ± 0.0
change in hair restoration score (improvement in the hair loss) ([6]; Day 29 of administration compared to Day 22): observed in a dose-dependent manner
